The structures appear in SMILES notation. “And” between values parts separate entries of the source, which are not always exact repeats. Equal values may be shown once.

For 45 molecules, photoluminescence quantum yield results are on record in the Deep4Chem optical property database.

This series can be described thus: photoluminescence quantum yield (fraction); solvent given as SMILES.

For `O=c1c2ccccc2nc2n1[B-](F)(F)[n+]1ccccc1-2`, the photoluminescence quantum yield is 0.78 (in CC#N) and 0.99 (in ClCCl).

For the molecule `c1ccc2c(c1)[nH]c1cccnc12`, the photoluminescence quantum yield came out at 0.145 (in C1CCCCC1); 0.081 (in C1CCOC1); 0.122 (in C1COCCO1); 0.129 (in CCO); 0.079 (in CN(C)C=O); 0.099 (in Cc1ccccc1). Moreover, the photoluminescence quantum yield runs as follows: (in ClC(Cl)Cl) 0.124; (in Clc1ccccc1) 0.119.

With `Cc1ccccc1-c1cc(-c2ccc(N3c4ccccc4C(C)(C)c4ccccc43)cc2)nc(-c2ccccc2)n1`, the photoluminescence quantum yield runs as follows: (in CC#N) 0.101; (in Cc1ccccc1) 0.777; (in ClCCl) 0.884.

As for `CCCN1/C(=C/C=C/C=C/C2=[N+](CCC)c3ccccc3C2(C)C)C(C)(C)c2ccccc21`, the photoluminescence quantum yield runs as follows: (in CO) 0.27; (in CS(C)=O) 0.55; (in O) 0.05.

Consider `COc1cc(OC)cc(C2=C3C(C)=C(I)C(/C=C/c4c[nH]c5ccc([N+](=O)[O-])cc45)=[N+]3[B-](F)(F)n3c(/C=C/c4c[nH]c5ccc([N+](=O)[O-])cc45)c(I)c(C)c32)c1`, for which the photoluminescence quantum yield (in C1CCOC1) came out at 0.03, the photoluminescence quantum yield (in CS(C)=O) turned out to be 0.02 and the photoluminescence quantum yield (in ClCCl) came out at 0.02.

As to `O=S1(=O)c2ccccc2C2(c3cc(-c4ccc(-n5c6ccccc6c6ccccc65)cc4)ccc3-c3ccc(-c4ccc(-n5c6ccccc6c6ccccc65)cc4)cc32)c2ccccc21`, the photoluminescence quantum yield was 0.81 (in ClCCl) and 0.86 (in c1cc(-n2c3ccccc3c3ccccc32)cc(-n2c3ccccc3c3ccccc32)c1).

Regarding `O=C(O)CC[N+]1=c2cc3c(cc2CCC1)=Cc1c(c2cc4c5c(c2oc1=O)CCCN5CCC4)O3`, the photoluminescence quantum yield reads like this: (in CC#N) 0.025; (in CO) 0.013; (in ClCCl) 0.163; (in O) 0.003.

`COc1ccc2c3ccc(OC)cc3n(-c3ccc(-c4nnc(C)o4)cc3)c2c1` displayed a photoluminescence quantum yield (in Cc1ccccc1) of 0.06.

The molecule `CCCCCCCCOc1ccc(-c2c3c4n(c(-c5ccc(OCCCCCCCC)cc5)c3c3n2[B-](F)(F)[n+]2ccccc2N=3)[B-](F)(F)[n+]2ccccc2N=4)cc1` returned a photoluminescence quantum yield (in ClC(Cl)Cl) of 0.89.

`Cc1ccc(C#Cc2cc3ccccc3oc2=O)cc1` displayed a photoluminescence quantum yield (in CC#N) of 0.73.

As for `CCCCCCCCCCCCN1C(=O)c2c(c3ccc4cc(-c5ccc(C=O)cc5)c(OC)cc4c3c3c2ccc2cc(-c4ccc(C=O)cc4)c(OC)cc23)C1=O`, the photoluminescence quantum yield (in ClCCl) was 0.157.

For the setting “in ClCCl”, `CCOC(=O)COc1ccc(/C=C/C2=[N+]3C(=Cc4c5ccccc5c(-c5[nH]c(C)cc5C)n4[B-]3(F)F)C(C)=C2)cc1` gave a photoluminescence quantum yield of 0.75.

For `c1ccc(C2=C(c3ccccc3)c3cccc4c3c(cc3nc5cc(-c6ccccc6)c(-c6ccccc6)cc5nc34)O2)cc1`, the photoluminescence quantum yield (in ClCCl) was 0.86.

`CCc1ccc(-c2ccc(-c3nnc(-c4ccc(-c5nnc(-c6ccc(-c7ccc(CC)cc7)s6)o5)cc4)o3)s2)cc1` yielded a photoluminescence quantum yield (in ClC(Cl)Cl) of 0.6.

On to `O=C(c1ccc(C(=C(c2ccccc2)c2ccccc2)c2ccccc2)cc1)c1ccc(-n2c3ccccc3c3ccccc32)cc1`, for which the photoluminescence quantum yield (in C1CCOC1) is 0.208.

In the case of `CCC(CC)COC1=CC2=C3c4cc(OCC(CC)CC)c(-c5ccccc5)n4[B-](F)(F)[n+]4c3n(c3cc(C(C)(C)C)ccc34)[B-](F)(F)[N+]2=C1c1ccccc1`, the photoluminescence quantum yield worked out at 0.11 (in C1CCOC1) and 0.13 (in ClCCl).

Consider `CCN(CC)c1ccc2c(c1)oc(=O)c1cnc3c(cnn3-c3ccccc3)c12`, for which the photoluminescence quantum yield runs as follows: (in C1CCCCC1) 0.926; (in CCOC(C)=O) 0.885; (in CN(C)C=O) 0.296; (in CO) 0.222; (in ClCCl) 0.916.

Regarding `CC1=N/C(=C\c2ccc(N(C)C)cc2)C(=O)N1C`, the photoluminescence quantum yield (in C1CCCCC1) came to 0.0001; the photoluminescence quantum yield (in C1CCOC1) is 0.0004; the photoluminescence quantum yield (in CC#N) amounted to 0.0003; the photoluminescence quantum yield (in CO) stood at 0.0003; the photoluminescence quantum yield (in CS(C)=O) was determined as 0.0002; the photoluminescence quantum yield (in ClCCl) was determined as 0.0009. This molecule also returned a photoluminescence quantum yield (in O) of 0.0002.

Take `COc1ccc(-n2nc(C#N)c(N3CCOCC3)n2)cc1`: the photoluminescence quantum yield (in CC#N) amounted to 0.856.

Regarding `CCCCCOc1cc2oc(=O)c3c4ccc(N(c5ccc(C)cc5)c5ccc(C)cc5)cc4c4ccc5cccc6c(c1)c2c3c4c56`, the photoluminescence quantum yield (in C1CCOC1) is 0.53.

For `CC1=[N+]2C(=C(c3ccc(N4CCCCC4)cc3)c3ccc(C)n3[B-]2(F)F)C=C1`, the photoluminescence quantum yield reads like this: (in C1CCCCC1) 0.33; (in C1CCOC1) 0.01 and 0.008; (in CC#N) 0.003 and 0.002; (in CC(=O)C(C)(C)C) 0.004; (in CC(C)=O) 0.002; (in CCCCCC) 0.341. For the same molecule, the photoluminescence quantum yield is, setting by setting: (in CCOC(C)=O) 0.006 and 0.005; (in CO) 0.005 and 0.003; (in Cc1ccccc1) 0.13; (in ClC(Cl)Cl) 0.077.

Where the note is “in Cc1ccccc1”, `COc1ccccc1-c1nc2c3ccccc3c3ccccc3c2n1-c1ccc(C)cc1` had a photoluminescence quantum yield of 0.284.

Consider `CC(C)[Si](C#Cc1ccc(C#C[Si](C(C)C)(C(C)C)C(C)C)c2nc3ccccc3nc12)(C(C)C)C(C)C`, for which the photoluminescence quantum yield (in ClCCl) was 0.02.

Consider `CC(=O)Nc1ccc(O)cc1`, for which the photoluminescence quantum yield by setting is: (in C1CCOC1) 0.0031; (in CC#N) 0.0035; (in CCCCO) 0.0007; (in CO) 0.0037; (in CS(C)=O) 0.0022.

On to `CC(C)[Si](C#Cc1c2cc3ccccc3cc2c(C#C[Si](C(C)C)(C(C)C)C(C)C)c2nc3c(ccc4cc5ccccc5cc43)nc12)(C(C)C)C(C)C`, for which the photoluminescence quantum yield (in CCCCCC) is 0.26.

As for `COc1ccc2c(c1)CCc1c(-c3ccccc3)c3n(c1-2)[B-](F)(F)[N+]1=C2C(=C(c4ccccc4)C1=N3)CCc1ccccc12`, the photoluminescence quantum yield (in ClC(Cl)Cl) was 0.32.

Take `CCCCCCCCCCCCCCCCCCN1C(=O)c2ccc3c4ccc5c6c(ccc(c7ccc(c2c37)C1=O)c64)C(=O)N(CCCCCCCCCCCCCCCCCC)C5=O`: where the note is “in CN(C)C=O”, the photoluminescence quantum yield stood at 0.8.

Regarding `Cc1cc(C)c(B(c2c(C)cc(C)cc2C)c2c(C)cc(N3c4ccccc4Oc4ccccc43)cc2C)c(C)c1`, the photoluminescence quantum yield by setting is: (in Cc1ccccc1) 0.44; (in c1ccc2c(c1)c1ccccc1n2-c1ccc(-c2ccc(-n3c4ccccc4c4ccccc43)cc2)cc1) 0.92.

For `CCOC(CN1C(=O)C2=C(c3ccsc3)N(CC(OCC)OCC)C(=O)C2=C1c1ccsc1)OCC`, the photoluminescence quantum yield (in ClC(Cl)Cl) came out at 0.9.

`COc1ccc2nc(N)n[n+]([O-])c2c1`: the photoluminescence quantum yield was determined as 0.472 (in CC#N) and 0.0868 (in O).

As to `Cc1c(-c2ccc(N3c4ccccc4C(C)(C)c4ccccc43)cc2)ncnc1-c1ccc(N2c3ccccc3C(C)(C)c3ccccc32)cc1`, the photoluminescence quantum yield (in O=P(c1ccccc1)(c1ccccc1)c1ccccc1Oc1ccccc1P(=O)(c1ccccc1)c1ccccc1) was determined as 0.75.

Turning to `COC(=O)C(Cc1ccc2oc(-c3ccncc3)nc2c1)NC(=O)OC(C)(C)C` (centres undefined), the photoluminescence quantum yield by setting is: (in CC1CCCCC1) 0.01; (in CC#N) 0.21; (in CO) 0.4.

`CCN(CC)c1ccc(/C=N/C2CCCCC2/N=C/c2ccc(N(CC)CC)cc2O)c(O)c1` (centres undefined) gave a photoluminescence quantum yield (in CC#N) of 0.068.

For `CC(=O)c1c(N[C@@H](CC(C)C)C(=O)O)c2ccc(N(C)C)cc2oc1=O`, the photoluminescence quantum yield (in ClCCl) was found to be 0.0027.

For `CN(C)c1ccc(-c2nc(C#N)c(C#N)n2C)cc1`, the photoluminescence quantum yield reads like this: (in C1CCCCC1) 0.85; (in CC#N) 0.02; (in CO) 0.003; (in ClC(Cl)Cl) 0.73.

Turning to `Cn1c(=O)c(/N=N/c2ccc(/N=N/c3ccc(S(=O)(=O)O)cc3)cc2)c(O)c2ccccc21`, the photoluminescence quantum yield (in CS(C)=O) worked out at 0.05.

With `CC(=O)c1ccc2ccc3cccc4ccc1c2c34`, the photoluminescence quantum yield worked out at 0.002 (in C1CCOC1); 0.002 (in CC#N); 0.002 (in CCCCCC); 0.012 (in CCO); 0.002 (in CN(C)C=O); 0.014 (in CO). Also, the photoluminescence quantum yield is, setting by setting: (in Cc1ccccc1) 0.003; (in ClCCl) 0.002.

Where the note is “in CO”, `C#CCOc1ccc(/C=C/C2=[N+]3C(=C(c4ccc(N(CC)CC)cc4)c4c(C)cc(C)n4[B-]3(F)F)C(C)=C2)cc1` returned a photoluminescence quantum yield of 0.84.

Take `CCN1c2ccc(C3=CC(c4ccccc4)=[O+][B-](F)(F)O3)cc2Sc2cc(C3=CC(c4ccccc4)=[O+][B-](F)(F)O3)ccc21`: the photoluminescence quantum yield (in ClCCl) was found to be 0.46.

Take `C[n+]1ccn(CCCCc2ccc3c(c2)c2ccccc2n3-c2cc(C#N)c(C#N)cc2-n2c3ccccc3c3cc(CCCCn4cc[n+](C)c4)ccc32)c1`: the photoluminescence quantum yield (in CC#N) is 0.026.

For the setting “in ClCCl”, `CCCCc1ccc(C#Cc2ccc3nc4ccc(C#Cc5ccc(CCCC)cc5)cn4c(=O)c3c2)cc1` displayed a photoluminescence quantum yield of 0.48.

`COc1ccc(C2=C(c3ccc([N+](=O)[O-])cc3)C(c3ccccc3)=[N+]3C2=Nc2c(-c4ccc(OC)cc4)c(-c4ccc([N+](=O)[O-])cc4)c(-c4ccccc4)n2[B-]3(F)F)cc1` registered a photoluminescence quantum yield (in Cc1ccccc1) of 0.05.

In the case of `Cc1cc(C)c(B2c3cc(C(C)(C)C)ccc3-c3c(-c4ccccc4)ccc4cc(C(C)(C)C)cc2c34)c(C)c1`, for the setting “in C1CCCCC1”, the photoluminescence quantum yield came out at 0.91.

Molecule `CCOC(=O)/C=C/C1=[N+]2C(=C(c3c(C)cc(C)cc3C)c3ccc(/C=C/C(=O)OCC)n3[B-]2(F)F)C=C1` had a photoluminescence quantum yield (in ClCCl) of 0.98.

With `CCn1c2ccccc2c2cc(/C=C/c3cccc[n+]3CCCS(=O)(=O)[O-])ccc21`, the photoluminescence quantum yield stood at 0.09 (in C1CCOC1), 0.03 (in CC#N), 0.03 (in CC(C)=O) and 0.06 (in Cc1ccccc1).
